For series [1], the target named is T1, human pancreatic α-chymotrypsin (Homo sapiens, UniProt P17538).
T1 construct: purchased Sigma C-8946; host or cells: isolated from human pancreas
The series can be described thus: Specificity of proteasomal enzymatic assay: pancreatic chymotrypsin activity. Conditions: Suc-LLVY-AMC. It is filed as biochemical. How it is done: (§1) Ch-L, Tr-L, and Cas-L activities in peripheral blood plasma from patients were measured as follows. Frozen patient plasma samples were processed by thawing at room temperature and mixed thoroughly. 45 μL of thawed plasma was pipetted into a microfuge tube (Tube 1), and 22.5 μL plasma was pipetted into another microfuge tube (Tube 2). 5 μL 10% SDS was pipetted into Tube 1, and 2.5 μL 10% tween 20 was pipetted into Tube 2. Each tube was mixed and incubated at room temperature for 15 minutes resulting in processed samples. All buffers, substrate stock solutions, controls, and microwell plates were equilibrated to room temperature. The proteasome control was placed on ice immediately after thawing. […] Cleavage of substrate was detected using the SPECTRAmax GEMINI EM instrument with SoftMax Pro data Collection software. […] Fluorescence excitation and emission wavelengths were 380 nm and 460 nm, respectively. Samples were read at 1 minute intervals over 30 minutes. Green fluorescence was detected in columns 1, 4, 7, and 10, representing Ch-L activity; blue fluorescence was detected in columns 3, 6, 9, and 12, representing Cas-L activity; and yellow fluorescence was detected in columns 2, 5, 8, and 11, representing Tr-L activity. […]

The target of series [2] is T2, proteasomal caspase-like activity (Cas-L) (Homo sapiens, UniProt P28072).
T2 construct: in samples of purified proteasome, plasma, and white blood cell lysate; from tissue; host or cells: purified proteasome; plasma; white blood cell lysate (normal individuals)
T2 sequence (P28072 1-239): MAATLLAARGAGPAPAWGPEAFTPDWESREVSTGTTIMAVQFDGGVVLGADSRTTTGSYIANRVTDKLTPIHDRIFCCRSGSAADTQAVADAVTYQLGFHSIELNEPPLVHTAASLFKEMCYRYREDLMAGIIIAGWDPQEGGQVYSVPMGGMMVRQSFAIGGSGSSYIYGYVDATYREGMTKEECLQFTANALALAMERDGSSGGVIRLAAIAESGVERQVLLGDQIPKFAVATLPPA
The series can be described thus: Proteasome inhibitor effect on caspase-like (Cas-L) peptidase activity, fluorogenic Z-LLE-AMC assay. Conditions: purified proteasome, plasma and white blood cell lysate; YU-101 0.4 μg/mL; substrate 200 μM. The class given is biochemical. The procedure: as §1

Series [3] has as its system proteasome Ch-L activity in plasma from an AML patient. The series can be described thus: Dose response of Ch-L activity in plasma from an AML patient. The conditions noted are these: for % Inhibition / Activity: AML patient plasma. The class given is biochemical, human. The procedure: (§2) Ch-L, Tr-L, and Cas-L activities in peripheral blood plasma from patients were measured as follows. Frozen patient plasma samples were processed by thawing at room temperature and mixed thoroughly. 45 μL of thawed plasma was pipetted into a microfuge tube (Tube 1), and 22.5 μL plasma was pipetted into another microfuge tube (Tube 2). 5 μL 10% SDS was pipetted into Tube 1, and 2.5 μL 10% tween 20 was pipetted into Tube 2. Each tube was mixed and incubated at room temperature for 15 minutes resulting in processed samples. All buffers, substrate stock solutions, controls, and microwell plates were equilibrated to room temperature. The proteasome control was placed on ice immediately after thawing. Substrate working solutions (1 mM) were made by adding 950 μL buffer A (1×HEPES/0.05% SDS) to 50 μL stock solution of Ch-L and Cas-L substrates (20 mM Suc-LLVY-AMC and 20 mM Z-LLE-AMC) and mixed. 950 μL buffer B (1×HEPES/0.05% Tween 20) was added to 50 μL stock solution of Tr-L substrate (20 mM BZ-VGR-AMC) and mixed. Working solutions were protected from light. A microwell plate (containing 12 columns of wells) was set-up according to a plate map as follows: 30 μL buffer A was pipetted into the wells of columns 1, 4, 7, and 10 (to measure Ch-L activity) and 3, 6, 9, and 12 (to measure Cas-L activity). 30 μL buffer B was pipetted into the wells of columns 2, 5, 8, and 11 (to measure Tr-L). 10 μL buffer A or B served as blank controls. 10 μL of processed samples were pipetted into duplicate wells for each substrate (i.e., 6 wells per processed plasma sample), to the designated wells according to the plate map. 10 μL of substrate was added to the designated wells according to the plate map. The final concentration of substrate was 200 μM. Cleavage of substrate was detected using the SPECTRAmax GEMINI EM instrument with SoftMax Pro data Collection software. The instrument incubation chamber temperature was set to 37° C. Fluorescence excitation and emission wavelengths were 380 nm and 460 nm, respectively. Samples were read at 1 minute intervals over 30 minutes. Green fluorescence was detected in columns 1, 4, 7, and 10, representing Ch-L activity; blue fluorescence was detected in columns 3, 6, 9, and 12, representing Cas-L activity; and yellow fluorescence was detected in columns 2, 5, 8, and 11, representing Tr-L activity.
A dose response study was conducted to determine the effect of concentration of YU-101 on Ch-L activity as assayed in plasma from an AML patient. YU-101 (200 ng/μL) was serially diluted 1:4 in HEPES buffer to produce solutions having concentrations of 0.78, 3.125, 12.5, 50, and 200 ng/μL for dose response experiments. 70 μL of plasma from an AML patient was combined with 1 μL inhibitor solution and incubated at room temperature for 15 minutes. Ch-L activity was determined as in Example 1.

Series [4] relates to proteasome Ch-L activity in whole blood cell lysate from a normal individual. The series can be described thus: Dose response of Ch-L activity in whole blood lysate from a normal individual. It is filed as biochemical, human. Details: Activity: unit not given beside the values. The conditions noted are these: for % Inhibition / Activity: whole blood, normal individual. How it is done: as §2
A dose response study was conducted to determine the effect of concentration of YU-101 on Ch-L activity in a whole blood lysate from a normal individual. YU-101 (200 ng/μL) was serially diluted 1:2 in HEPES buffer to produce solutions having concentrations of 6.25, 12.5, 25, 50, and 100 ng/μL for dose response experiments. 70 μL of […] was combined with 1 μL inhibitor solution and incubated at room temperature for 15 minutes. Ch-L activity was determined as in Example 1.

The subject of series [5] is proteasomal trypsin-like activity (Tr-L). The series can be described thus: Proteasome inhibitor effect on trypsin-like (Tr-L) peptidase activity, fluorogenic BZ-VGR-AMC assay. The conditions noted are these: purified proteasome, plasma and white blood cell lysate; YU-101 0.4 μg/mL; substrate 200 μM. The class given is biochemical, human. The procedure:
as §1

Series [6] has as its system proteasomal chymotrypsin-like activity (Ch-L). The series can be described thus: Proteasome inhibitor effect on chymotrypsin-like (Ch-L) peptidase activity, fluorogenic Suc-LLVY-AMC assay. The class given is biochemical, human. The conditions noted are these: purified proteasome, plasma and white blood cell lysate; YU-101 0.4 μg/mL; substrate 200 μM. The procedure: as §1

The target in series [7] is T3, Pure human 20S proteasome (Homo sapiens, UniProt P28074).
T3 construct: purchased Biomol International PW8720-0050
The series can be described thus: Specificity of proteasomal enzymatic assay: Ch-L activity of purified 20S proteasome. The class given is biochemical. Conditions: Suc-LLVY-AMC.

T1 sequence (P17538 34-164 limits assumed, other chains not shown): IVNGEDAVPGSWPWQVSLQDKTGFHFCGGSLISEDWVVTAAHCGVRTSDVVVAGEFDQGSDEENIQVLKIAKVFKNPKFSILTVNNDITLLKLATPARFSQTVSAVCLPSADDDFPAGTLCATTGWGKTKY
T1 sequence (P17538 167-263 limits assumed, other chains not shown): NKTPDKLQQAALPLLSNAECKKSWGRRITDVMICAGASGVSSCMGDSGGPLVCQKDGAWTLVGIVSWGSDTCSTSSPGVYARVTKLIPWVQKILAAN

Take `CC(=O)NC(CCc1ccccc1)C(=O)NC(CC(C)C)C(=O)NC(Cc1ccccc1)C(=O)NC(CC(C)C)C(=O)C1(C)CO1` (centres unmarked) [YU-101]: the “Vmax Ch-L (fluorescence)” value is reported as “No activity” in series [1] (pancreatic α-chymotrypsin + YU-101, final 4 ng/μL) and “No activity” in series [7] (purified 20S proteasome + YU-101, final 4 ng/μL). For the same molecule, the “inhibition of caspase-L activity” value in series [2] is reported as “weaker inhibitor”. Moreover, the % Inhibition (as a rule, the percentage by which the read-out fell short of the control) is listed as 0.00% in series [3] (approx. YU-101 0.00156 ng/μL); 8.98% in series [3] (approx. YU-101 0.00625 ng/μL); 38.41% in series [3] (approx. YU-101 0.025 ng/μL); 62.54% in series [3] (approx. YU-101 0.1 ng/μL); 69.56% in series [3] (approx. YU-101 0.4 ng/μL); 3.2% in series [4] (approx. YU-101 0.0125 ng/μL). Further, the “% Inhibition” value in series [4] (approx. YU-101 0.025 ng/μL) came out at 24.0%; in series [4] (approx. YU-101 0.05 ng/μL) it was 38.4%; in series [4] (approx. YU-101 0.1 ng/μL), 82.0%; in series [4] (approx. YU-101 0.2 ng/μL) it was 92.6%. Also, the Activity in series [3] (approx. YU-101 0.00156 ng/μL) was determined as 233781; in series [3] (approx. YU-101 0.00625 ng/μL), 212786; in series [3] (approx. YU-101 0.025 ng/μL), 143991; in series [3] (approx. YU-101 0.1 ng/μL) it was 87573; in series [3] (approx. YU-101 0.4 ng/μL), 71162; in series [4] (approx. YU-101 0.0125 ng/μL), 92002. For the same molecule, the Activity in series [4] (approx. YU-101 0.025 ng/μL) is recorded as 72252; in series [4] (approx. YU-101 0.05 ng/μL), 58544; in series [4] (approx. YU-101 0.1 ng/μL) it was 17070; in series [4] (approx. YU-101 0.2 ng/μL), 7024. The “inhibition of Ch-L activity, dose dependence” value in series [3] (plasma of an AML patient) and in series [4] (whole blood cell lysate from a normal individual) was “dose-dependent” throughout. The “inhibition of trypsin-L activity” value in series [5] is given as “weaker inhibitor”. The “inhibition of chymotrypsin-L activity” value in series [6] was “strong inhibitor”.

B1: α1-anti-chymotrypsin: pancreatic chymotrypsin inhibitor (Sigma, catalog #A9285) (protein, UniProt P01011 24-423, looked up)
Alpha-1-antichymotrypsin: HPNSPLDEENLTQENQDRGTHVDLGLASANVDFAFSLYKQLVLKAPDKNVIFSPLSISTALAFLSLGAHNTTLTEILKGLKFNLTETSEAEIHQSFQHLLRTLNQSSDELQLSMGNAMFVKEQLSLLDRFTEDAKRLYGSEAFATDFQDSAAAKKLINDYVKNGTRGKITDLIKDLDSQTMMVLVNYIFFKAKWEMPFDPQDTHQSRFYLSKKKWVMVPMMSLHHLTIPYFRDEELSCTVVELKYTGNASALFILPDQDKMEEVEAMLLPETLKRWRDSLEFREIGELYLPKFSISRDYNLNDILLQLGIEEAFTSKADLSGITGARNLAVSQVVHKAVLDVFEEGTEASAATAVKITLLSALVETRTIVRFNRPFLMIIVPTDTQNIFFMSKVTNPKQA
For the molecule B1, the “Vmax Ch-L (fluorescence)” value in series [1] (pancreatic α-chymotrypsin + α1-anti-chymotrypsin, final 40 ng/μL) is “No activity”; in series [7] (purified 20S proteasome + α1-anti-chymotrypsin, final 40 ng/μL), 121,813.

These data come from patent US20080118940A1, “PROTEASOMAL PEPTIDASE ACTIVITY AND THE USE THEREOF IN CLINICAL APPLICATIONS” (priority 2006, published 2008).
